Source: patent US20220362230A1, “USE OF GLUTARIMIDE DERIVATIVE FOR OVERCOMING STEROID RESISTANCE AND TREATING DISEASES ASSOCIATED WITH ABERRANT INTERFERON GAMMA SIGNALING” ("CHEMIMMUNE THERAPEUTICS" LIMITED LIABILITY COMPANY, priority 2018, published 2022)

Legend:
[1] = test system: patients with bronchial asthma; assay: Phase II clinical trial (PULM-XC8-02, NCT03450434), response to baseline inhaled corticosteroid therapy (FEV1); type: in vivo, human
Procedure: Thus, Compound is potentially useful for the therapy of diseases associated with the development of steroid resistance, in particular for the treatment of steroid-resistant asthma.
In the clinical trial, eligible patients were randomized 1:1:1:1 to one of four groups: • Compound 1 at a dose of 2 mg per day; • Compound 1 at a dose of 10 mg per day; • Compound 1 at a dose of 100 mg per day; and • Placebo.
(§1) During the study therapy phase, patients received Compound 1 or placebo for 12 weeks against the background of baseline steroid therapy with low doses of inhaled corticosteroids. Compound 1 or placebo was administered orally once a day, 30 minutes before breakfast.
Thus, one of the effects of the use of Compound 1 is the overcoming of the resistance to corticosteroids, which is the backbone of the baseline therapy of patients enrolled in the clinical trial.
(§2) To study the effect of the IFN-γ baseline level in patients with asthma, the results obtained in the clinical study were additionally analyzed; the patients' response to therapy was studied depending on their IFN-γ baseline level in the blood at the time of trial inclusion (determined by the Bio-Plex Pro Human Chemokine Panel Assay (Bio-Rad)).
The patients' response to baseline therapy in the groups of baseline steroid therapy and placebo decreased with an increase in the IFN-γ baseline level (FIG. 2). […] This fact indicates the overcoming of steroid resistance that can be caused, inter alia, by aberrant IFN-γ signaling.

[2] = test system: interferon-γ-dependent cytokine CXCL10 (interferon-gamma-induced protein IP10); assay: Phase II clinical trial, CXCL10 concentration in blood plasma; type: in vivo, human; conditions: with baseline steroid therapy; patients with IFN-γ baseline level >100 pg/ml
Procedure: as §1, §2
(§3) Moreover, in the clinical trial, Compound 1 was also analyzed for its effect on IFN-γ signal transduction. […] Thus, the suppression of steroid resistance induced by the use of Compound 1 could potentially be associated with an effect on the aberrant activity (signaling) of IFN-γ.

IFN-γ = assay: Phase II clinical trial, interferon-γ concentration in blood plasma; type: in vivo, human; conditions: with baseline therapy, compared with baseline therapy and placebo; regardless of IFN-γ level at inclusion
Procedure: as §1, §2, §3

[3] = test system: acute oxazolone-induced ulcerative colitis; assay: Murine model of acute oxazolone-induced ulcerative colitis; type: in vivo, female balb/c mice; conditions: for The degree of large intestine wall damage, score: 72 hours after oxazolone, M ± m, n=10
Procedure: The activity of Compound 1 in a model of acute oxazolone-induced ulcerative colitis was studied using the standard method [Immunity. 2002. P. 629-638]. In the study, female balb/c mice (6-8 weeks old) were used. Compound I was administered intragastrically, three times: 1 hour, 25 hours, and 49 hours after rectal administration of oxazolone. The body weight of the animals was measured before and 24, 48 and 72 hours after administration of oxazolone. The intestinal wall damage was evaluated under a microscope 72 hours after administration of oxazolone, according to the following score scale: 0=no damage, 1=hyperemia, no ulcers, 2=hyperemia, thickening of the intestinal wall, no ulcers, 3=one ulcer without thickening of the intestinal wall, 4=2 or more sites of ulceration or inflammation, 5=2 or more serious sites of ulceration and inflammation, or one site of ulceration/inflammation, extending >1 cm along the length of the colon, and 6-10=damage covers>2 cm long the length of the colon, the score is increased by 1 for each additional 1 cm of involvement. All data were analyzed by descriptive statistics: arithmetic mean (M) and standard error of the arithmetic mean (m). The Shapiro-Wilk test was used to check the normality of the distribution of the obtained experimental data. A normal distribution was analyzed with 1-way ANOVA (with Dunnett's post-analysis) to assess intergroup differences. A non-normal distribution was analyzed with […] (with Tukey's post-analysis) to compare several groups. Differences were determined at a confidence level of 5%.

[4] = test system: cough induced by inhalation of citric acid and IFN-γ; assay: Guinea pig model of cough induced by inhalation of citric acid and IFN-γ; type: in vivo, guinea pigs of the Aguti line; conditions: for The number of coughing movements within 8 minutes: 7 hours before citric acid inhalation, M ± m, n=5
Procedure: The activity of Compound I in a model of cough in guinea pigs, which was induced by inhalation of citric acid and IFN-γ, was studied in accordance with the method [Am J Respir Crit Care Med. 2018. V. 198(7). P. 868-879].
In the study, guinea pigs of the Aguti line were used. All experimental animals were inhaled with a citric acid solution (0.3 M) prepared in physiological saline, for 8 minutes. The pathology control group and the groups receiving therapy were inhaled with IFN-γ (10 pg/kg) for 3 minutes at 7 hours before the inhalation of citrate. Compound 1 was administered intragastrically once, immediately after inhalation of IFN-γ, i.e. 7 hours before inhalation of the citric acid solution. The antitussive activity was evaluated by counting the number of coughing fits within 8 minutes from the start of inhalation of citric acid. All data were analyzed by descriptive statistics: arithmetic mean (M) and standard error of the arithmetic mean (m). The Shapiro-Wilk test was used to check the normality of the distribution of the obtained experimental data. A normal distribution was analyzed with 1-way ANOVA (with Dunnett's post-analysis) to assess intergroup differences. A non-normal distribution was analyzed with […] (with Tukey's post-analysis) to compare several groups. Differences were determined at a confidence level of 5%.

**Q.** How did the “Response to therapy (change in FEV1, week 12 vs. week 0)” value ([1]; 100 mg per day with baseline steroid therapy vs placebo, especially patients with IFN-γ level more than 100 pg/ml) turn out when `O=C1CCCC(=O)N1CCc1cnc[nH]1` [Compound 1, 1-(2-(1H-imidazol-4-yl)ethyl)piperidine-2,6-dione] was run?
**A.** significantly greater and clinically significant response to therapy

**Q.** And the Clinical effect ([1]; 100 mg per day, 12 weeks, with baseline low-dose inhaled corticosteroids)?
**A.** clinically significant effect

**Q.** What about the “Number of patients with an increase in FEV1 by 100 ml or more (response to baseline steroid therapy)” value ([1]; baseline steroid therapy and Compound 1, 12 weeks, oral once a day, placebo group 13 out of 29) of the same molecule?
**A.** 20 patients out of 29

**Q.** And the “Change in concentration of CXCL10 (IP10) in blood plasma, week 12 vs week 0” value [2]?
**A.** suppressed the concentration of interferon-γ-dependent cytokine CXCL10

**Q.** And the “Change in concentration of IFN-γ in blood plasma, week 12 vs week 0” value (IFN-γ)?
**A.** negative dynamics of IFN-γ concentrations

**Q.** And the “The degree of large intestine wall damage, score” value (shortened to “The degree”) ([3]; 0.3 mg/kg intragastrically x3)?
**A.** 1.70 ± 0.30 score

**Q.** What about the Body weight ([3]; 0.3 mg/kg, 24 hours after administration of oxazolone) of the same molecule?
**A.** 17.9 ± 0.2 g

**Q.** And the Body weight ([3]; 0.3 mg/kg, 48 hours after administration of oxazolone)?
**A.** 17.5 ± 0.3 g

**Q.** What about the Body weight ([3]; 0.3 mg/kg, 72 hours after administration of oxazolone) of the same molecule?
**A.** 16.9 ± 0.2 g

**Q.** What about the Body weight ([3]; 0.3 mg/kg, before administration of oxazolone) of the same molecule?
**A.** 19.0 ± 0.6 g

**Q.** What about the “The degree” value ([3]; 3 mg/kg intragastrically x3) of the same molecule?
**A.** 1.89 ± 0.31 score

**Q.** What about the Body weight ([3]; 3 mg/kg, 24 hours after administration of oxazolone) of the same molecule?
**A.** 17.9 ± 0.3 g

**Q.** What about the Body weight ([3]; 3 mg/kg, 48 hours after administration of oxazolone) of the same molecule?
**A.** 17.6 ± 0.2 g

**Q.** And the Body weight ([3]; 3 mg/kg, 72 hours after administration of oxazolone)?
**A.** 16.7 ± 0.2 g

**Q.** What about the Body weight ([3]; 3 mg/kg, before administration of oxazolone) of the same molecule?
**A.** 18.7 ± 0.4 g

**Q.** And the “The degree” value ([3]; 30 mg/kg intragastrically x3)?
**A.** 1.40 ± 0.16& score

**Q.** And the Body weight ([3]; 30 mg/kg, 24 hours after administration of oxazolone)?
**A.** 18.8 ± 0.2& g

**Q.** And the Body weight ([3]; 30 mg/kg, 48 hours after administration of oxazolone)?
**A.** 18.4 ± 0.4& g

**Q.** And the Body weight ([3]; 30 mg/kg, 72 hours after administration of oxazolone)?
**A.** 18.4 ± 0.5& g

**Q.** And the Body weight ([3]; 30 mg/kg, before administration of oxazolone)?
**A.** 19.8 ± 0.6 g

**Q.** And the “Effect on degree of damage of the colon wall” value ([3]; administered intragastrically)?
**A.** reduced the degree of damage of the colon wall

**Q.** And the “Effect on weight loss in animals” value ([3]; administered intragastrically)?
**A.** prevented weight loss

**Q.** And the “Intensity of action compared with reference steroid” value ([3]; murine model of ulcerative colitis)?
**A.** not inferior to prednisolone by intensity of action

**Q.** What about the “The number of coughing movements within 8 minutes” value ([4]; 1.4 mg/kg intragastrically once) of the same molecule?
**A.** 19.2 ± 2.7&

**Q.** And the “The number of coughing movements within 8 minutes” value ([4]; 14 mg/kg intragastrically once)?
**A.** 18.4 ± 2.9&

**Q.** What about the “Effect on number of coughing movements” value ([4]; administered intragastrically) of the same molecule?
**A.** reduced the number of coughing movements

**Q.** Which Body weight ([3]; 10 mg/kg, 24 hours after administration of oxazolone) does the source give for `C[C@]12C=CC(=O)C=C1CC[C@@H]1[C@@H]2C(=O)C[C@@]2(C)[C@H]1CC[C@]2(O)C(=O)CO` [Prednisone, reference compound] here?
**A.** 18.5 ± 0.4 g

**Q.** And the Body weight ([3]; 10 mg/kg, 48 hours after administration of oxazolone)?
**A.** 17.9 ± 0.4 g

**Q.** What about the Body weight ([3]; 10 mg/kg, 72 hours after administration of oxazolone) of the same molecule?
**A.** 17.3 ± 0.6 g

**Q.** What about the “The degree” value ([3]; 10 mg/kg) of the same molecule?
**A.** 1.80 ± 0.25 score

**Q.** What about the Body weight ([3]; 10 mg/kg, before administration of oxazolone) of the same molecule?
**A.** 19.0 ± 0.4 g
